Read-outs that look alike come from different tables or passages of the source.
Experiments:
[1] = molecular target: EGFR Del19/T790M/C797S (Homo sapiens, UniProt P00533, C797S/DEL746-750/T790M); test: Biochemical EGFR kinase inhibition assay (Lance Ultra TR-FRET), triple mutant del19/T790M/C797S
Method: (§1) Biochemical EGFR kinase assays were conducted using Lance Ultra time-resolved fluorescence resonance energy transfer (TR-FRET) technology from Perkin-Elmer. Compounds of the invention were initially diluted to 20 mM in 100% DMSO for storage and made into kinase buffer solution to create a compound concentration ranging from 0.003 μM and 10 μM.
(§2) Each kinase reactions were incubated at room temperature for 1 hour and then stopped by the addition of 4 μL of stop solution (10 mM EDTA). The specific Europium-labeled-anti-phosphopeptide antibody (PerkinElmer, AD0069) diluted in LANCE detection buffer was then added to a final concentration of 2 nM. After 60 minutes incubation at room temperature the LANCE signal was measured on an EnVision Multilabel Reader (Perkin-Elmer). Excitation wavelength was set at 320 nm and emission monitored at 615 nm (donor) and 665 nm (acceptor). The IC50 values were determined using GraphPad prism software (GraphPad Software, Inc., San Diego, CA, USA).

[2] = molecular target: EGFR Del19/C797S (Homo sapiens, UniProt P00533, C797S/DEL746-750); test: Biochemical EGFR kinase inhibition assay (Lance Ultra TR-FRET), double mutant del19/C797S
Method: as §1, §2

[3] = molecular target: EGFR wildtype (WT) (Homo sapiens, UniProt P00533); test: Biochemical EGFR kinase inhibition assay (Lance Ultra TR-FRET), wildtype
Method: as §1, §2

[4] = molecular target: EGFR L858R/T790M/C797S (Homo sapiens, UniProt P00533, C797S/L858R/T790M); test: Biochemical EGFR kinase inhibition assay (Lance Ultra TR-FRET), triple mutant L858R/T790M/C797S
Method: as §1, §2

[5] = Km ATP, read-out: IC50 Del19/T790M/C797S (nM) Km ATP
[6] = Km ATP, read-out: IC50 Del19/C797S (nM) Km ATP
[7] = Km ATP, read-out: IC50 WT (nM) Km ATP
[8] = IC50 Del19/T790M/C797S (nM), 100 μM ATP
[9] = IC50 L858R/T790M/C797S (nM), 100 μM ATP
[10] = IC50 Del19/C797S (nM), 100 μM ATP
[11] = Km ATP, read-out: IC50 L858R/T790M/C797S (nM) Km ATP
[12] = ATP at Km, read-out: IC50 Del19/T790M/C797S (nM), Km ATP
[13] = ATP at Km, read-out: IC50 WT (nM), Km ATP
[14] = ATP at Km, read-out: IC50 Del19/C797S (nM), Km ATP

EGFR Del19/C797S, sequence (P00533 with tags, fused parts or gaps DEL746-750/C797S): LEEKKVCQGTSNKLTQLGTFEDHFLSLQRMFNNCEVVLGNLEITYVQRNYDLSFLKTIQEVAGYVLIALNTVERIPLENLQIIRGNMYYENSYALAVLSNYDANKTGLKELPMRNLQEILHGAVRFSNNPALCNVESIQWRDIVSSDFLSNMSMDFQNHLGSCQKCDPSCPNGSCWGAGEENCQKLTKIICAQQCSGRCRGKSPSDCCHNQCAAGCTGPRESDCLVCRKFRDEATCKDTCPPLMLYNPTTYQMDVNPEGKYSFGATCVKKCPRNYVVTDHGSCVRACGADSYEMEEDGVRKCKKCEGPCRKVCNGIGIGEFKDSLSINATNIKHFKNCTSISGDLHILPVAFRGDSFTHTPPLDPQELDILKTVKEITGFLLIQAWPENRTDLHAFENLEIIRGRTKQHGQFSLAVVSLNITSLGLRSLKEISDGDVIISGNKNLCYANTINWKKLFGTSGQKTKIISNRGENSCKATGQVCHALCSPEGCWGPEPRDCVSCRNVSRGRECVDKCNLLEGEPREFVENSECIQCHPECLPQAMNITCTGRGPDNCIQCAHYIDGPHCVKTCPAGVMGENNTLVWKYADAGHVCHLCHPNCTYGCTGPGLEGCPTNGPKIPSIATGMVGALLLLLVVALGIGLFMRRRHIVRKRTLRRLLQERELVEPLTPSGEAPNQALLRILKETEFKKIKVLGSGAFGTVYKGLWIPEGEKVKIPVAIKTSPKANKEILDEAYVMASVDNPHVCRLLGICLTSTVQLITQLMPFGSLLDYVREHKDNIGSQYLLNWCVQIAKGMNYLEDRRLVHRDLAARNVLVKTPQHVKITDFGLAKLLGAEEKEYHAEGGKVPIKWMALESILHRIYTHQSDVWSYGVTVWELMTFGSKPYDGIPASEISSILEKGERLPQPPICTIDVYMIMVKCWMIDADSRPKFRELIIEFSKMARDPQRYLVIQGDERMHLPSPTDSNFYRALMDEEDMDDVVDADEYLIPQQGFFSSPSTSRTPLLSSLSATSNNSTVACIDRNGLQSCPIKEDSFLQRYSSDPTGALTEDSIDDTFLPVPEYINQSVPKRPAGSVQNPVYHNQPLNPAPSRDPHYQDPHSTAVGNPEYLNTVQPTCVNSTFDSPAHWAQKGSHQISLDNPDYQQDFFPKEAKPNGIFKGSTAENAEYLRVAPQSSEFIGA
EGFR wildtype (WT), sequence (P00533 25-1210): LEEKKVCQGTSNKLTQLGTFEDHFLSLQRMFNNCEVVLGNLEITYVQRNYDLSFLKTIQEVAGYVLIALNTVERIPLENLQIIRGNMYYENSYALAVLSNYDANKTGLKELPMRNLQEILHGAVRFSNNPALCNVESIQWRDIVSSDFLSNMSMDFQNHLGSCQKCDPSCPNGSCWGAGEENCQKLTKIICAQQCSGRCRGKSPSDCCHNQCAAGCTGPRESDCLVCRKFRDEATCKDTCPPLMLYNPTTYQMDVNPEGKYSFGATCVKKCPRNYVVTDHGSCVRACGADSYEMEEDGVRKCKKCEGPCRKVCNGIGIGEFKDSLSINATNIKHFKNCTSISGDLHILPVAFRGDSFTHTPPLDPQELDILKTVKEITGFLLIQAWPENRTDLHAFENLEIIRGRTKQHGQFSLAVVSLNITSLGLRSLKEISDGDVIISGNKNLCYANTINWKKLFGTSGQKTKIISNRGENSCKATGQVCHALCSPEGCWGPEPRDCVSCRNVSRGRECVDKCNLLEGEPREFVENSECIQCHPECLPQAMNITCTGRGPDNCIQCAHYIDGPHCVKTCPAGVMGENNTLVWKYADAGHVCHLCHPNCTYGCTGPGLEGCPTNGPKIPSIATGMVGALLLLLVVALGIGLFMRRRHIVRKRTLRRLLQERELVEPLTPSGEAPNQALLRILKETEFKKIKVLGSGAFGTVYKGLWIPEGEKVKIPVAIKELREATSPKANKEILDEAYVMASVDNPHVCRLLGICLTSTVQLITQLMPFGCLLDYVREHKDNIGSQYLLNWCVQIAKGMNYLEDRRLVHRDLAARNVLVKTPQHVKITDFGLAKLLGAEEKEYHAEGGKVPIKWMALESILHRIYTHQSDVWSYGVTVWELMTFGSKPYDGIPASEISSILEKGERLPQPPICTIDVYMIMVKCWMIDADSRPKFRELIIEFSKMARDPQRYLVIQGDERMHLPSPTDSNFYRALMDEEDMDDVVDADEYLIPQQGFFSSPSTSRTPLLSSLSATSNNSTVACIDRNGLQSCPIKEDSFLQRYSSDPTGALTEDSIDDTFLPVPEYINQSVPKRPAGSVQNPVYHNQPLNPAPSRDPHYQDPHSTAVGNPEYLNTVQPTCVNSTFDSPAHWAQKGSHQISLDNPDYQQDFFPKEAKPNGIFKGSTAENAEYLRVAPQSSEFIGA
EGFR L858R/T790M/C797S, sequence (P00533 25-1210 T790M/C797S/L858R): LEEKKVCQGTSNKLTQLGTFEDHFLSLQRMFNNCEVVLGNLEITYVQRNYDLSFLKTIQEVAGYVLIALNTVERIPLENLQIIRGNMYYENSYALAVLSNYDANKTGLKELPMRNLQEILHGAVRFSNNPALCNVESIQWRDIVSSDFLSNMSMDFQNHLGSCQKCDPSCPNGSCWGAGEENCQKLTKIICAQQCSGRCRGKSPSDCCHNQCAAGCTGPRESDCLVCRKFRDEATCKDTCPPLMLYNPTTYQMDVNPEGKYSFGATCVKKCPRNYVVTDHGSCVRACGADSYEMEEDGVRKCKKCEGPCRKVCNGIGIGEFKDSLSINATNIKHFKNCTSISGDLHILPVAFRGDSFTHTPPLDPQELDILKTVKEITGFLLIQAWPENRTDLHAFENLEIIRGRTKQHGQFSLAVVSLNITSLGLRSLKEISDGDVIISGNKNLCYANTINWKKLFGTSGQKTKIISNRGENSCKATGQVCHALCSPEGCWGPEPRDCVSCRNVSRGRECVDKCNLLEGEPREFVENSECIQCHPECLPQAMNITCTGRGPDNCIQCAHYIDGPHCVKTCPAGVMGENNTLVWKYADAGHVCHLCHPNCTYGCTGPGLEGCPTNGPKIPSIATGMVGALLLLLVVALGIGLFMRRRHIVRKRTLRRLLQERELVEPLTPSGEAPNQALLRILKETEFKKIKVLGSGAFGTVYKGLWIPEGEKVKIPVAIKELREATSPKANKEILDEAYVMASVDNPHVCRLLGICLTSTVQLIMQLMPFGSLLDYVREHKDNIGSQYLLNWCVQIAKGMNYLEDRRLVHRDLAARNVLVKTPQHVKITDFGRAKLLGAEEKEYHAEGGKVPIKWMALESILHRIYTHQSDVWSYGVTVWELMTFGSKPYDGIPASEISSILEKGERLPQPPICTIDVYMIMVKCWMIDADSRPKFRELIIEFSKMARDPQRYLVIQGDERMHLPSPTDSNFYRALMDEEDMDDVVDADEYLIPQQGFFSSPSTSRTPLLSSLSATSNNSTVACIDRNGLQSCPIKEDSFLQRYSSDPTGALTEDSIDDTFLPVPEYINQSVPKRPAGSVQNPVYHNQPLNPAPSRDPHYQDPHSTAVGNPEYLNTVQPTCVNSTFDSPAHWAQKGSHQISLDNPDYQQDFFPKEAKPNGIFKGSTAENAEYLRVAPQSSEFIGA
EGFR Del19/T790M/C797S, sequence (P00533 with tags, fused parts or gaps DEL746-750/T790M/C797S): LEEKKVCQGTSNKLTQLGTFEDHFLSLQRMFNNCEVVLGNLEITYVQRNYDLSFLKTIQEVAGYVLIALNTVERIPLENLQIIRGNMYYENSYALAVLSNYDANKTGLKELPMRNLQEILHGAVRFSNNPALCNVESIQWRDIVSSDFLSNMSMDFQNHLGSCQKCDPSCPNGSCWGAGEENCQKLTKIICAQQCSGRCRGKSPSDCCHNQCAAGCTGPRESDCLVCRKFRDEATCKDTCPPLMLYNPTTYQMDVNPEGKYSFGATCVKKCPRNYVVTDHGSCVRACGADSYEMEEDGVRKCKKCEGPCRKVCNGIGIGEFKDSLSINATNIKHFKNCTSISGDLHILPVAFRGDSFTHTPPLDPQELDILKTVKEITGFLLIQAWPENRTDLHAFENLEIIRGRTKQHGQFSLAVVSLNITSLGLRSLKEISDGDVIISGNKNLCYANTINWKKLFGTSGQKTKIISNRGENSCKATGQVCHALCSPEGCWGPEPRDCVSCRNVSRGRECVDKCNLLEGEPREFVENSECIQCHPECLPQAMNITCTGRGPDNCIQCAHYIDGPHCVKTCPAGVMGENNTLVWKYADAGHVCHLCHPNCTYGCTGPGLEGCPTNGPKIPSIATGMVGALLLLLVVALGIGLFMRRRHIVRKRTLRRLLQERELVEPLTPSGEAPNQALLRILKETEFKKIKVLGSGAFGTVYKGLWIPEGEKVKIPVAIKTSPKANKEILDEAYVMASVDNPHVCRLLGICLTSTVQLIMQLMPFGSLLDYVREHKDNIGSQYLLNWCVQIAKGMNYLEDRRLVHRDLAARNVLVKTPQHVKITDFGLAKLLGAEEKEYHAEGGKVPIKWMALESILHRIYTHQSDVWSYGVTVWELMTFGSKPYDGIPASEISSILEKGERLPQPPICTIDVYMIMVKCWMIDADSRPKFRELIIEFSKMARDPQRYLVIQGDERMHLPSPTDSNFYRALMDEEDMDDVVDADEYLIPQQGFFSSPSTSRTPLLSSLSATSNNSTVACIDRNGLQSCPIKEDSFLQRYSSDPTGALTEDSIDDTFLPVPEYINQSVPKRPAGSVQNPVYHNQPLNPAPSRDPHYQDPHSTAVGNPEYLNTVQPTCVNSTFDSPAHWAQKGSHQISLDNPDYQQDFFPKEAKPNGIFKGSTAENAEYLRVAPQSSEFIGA

| IC50 [1, 5] [nM] | IC50 [2, 6] [nM] | IC50 [3, 7] [nM] | IC50 [1, 8] [nM] | IC50 [4, 9] [nM] | IC50 [2, 10] [nM] | IC50 ([3]; IC50 WT (nM), 100 μM ATP) [nM] | IC50 [4, 11] [nM] | IC50 [1, 12] [nM] | IC50 [3, 13] [nM] | IC50 [2, 14] [nM] | Structure (SMILES) |
| --- | --- | --- | --- | --- | --- | --- | --- | --- | --- | --- | --- |
| 2.2 | 35.5 | 213 | 1.6 | 1.1 | 47.3 | > 10000 | 3.3 |  |  |  | CC(C)Nc1cc(Nc2ccnc(-c3cnn(S(=O)(=O)C4CC4)c3)n2)ncc1C#Cc1cnn(C)c1 [Example 18, N^2-(2-(1-(Cyclopropylsulfonyl)-1H-pyrazol-4-yl)pyrimidin-4-yl)-N^4-isopropyl-5-((1-methyl-1H-pyrazol-4-yl)ethynyl)pyridine-2,4-diamine] |
| 0.8 | 34.3 | 374 |  |  |  |  | 1.8 |  |  |  | CC(C)Nc1cc(Nc2ccnc(-c3cnn(S(=O)(=O)C4CC4)c3)n2)ncc1C#Cc1cccnc1 [Example 21, N^2-(2-(1-(Cyclopropylsulfonyl)-1H-pyrazol-4-yl)pyrimidin-4-yl)-N^4-isopropyl-5-(pyridin-3-ylethynyl)pyridine-2,4-diamine] |
| 2.8 | 122 | 630 |  |  |  |  | 5.4 |  |  |  | COCCC#Cc1cnc(Nc2ccnc(-c3cnn(S(=O)(=O)C4CC4)c3)n2)cc1NC(C)C [Example 22, N^2-(2-(1-(Cyclopropylsulfonyl)-1H-pyrazol-4-yl)pyrimidin-4-yl)-N^4-isopropyl-5-(4-methoxybut-1-yn-1-yl)pyridine-2,4-diamine] |
|  |  |  |  |  | 187 | > 10000 |  | 22.7 | 264 |  | CC(C)Nc1cc(Nc2ccnc(-c3cnn(S(=O)(=O)C4CC4)c3)n2)ncc1C#CC(C)(C)O [Example 204, 4-(6-((2-(1-(Cyclopropylsulfonyl)-1H-pyrazol-4-yl)pyrimidin-4-yl)amino)-4-(isopropylamino)pyridin-3-yl)-2-methylbut-3-yn-2-ol] |
|  |  |  |  |  |  |  |  | 18.3 | 587 | 265 | CC(C)Nc1cc(Nc2ccnc(-c3cnn(S(=O)(=O)C4CC4)c3)n2)ncc1C#Cc1csc(C2CC2)n1 [Example 205, N^2-(2-(1-(Cyclopropylsulfonyl)-1H-pyrazol-4-yl)pyrimidin-4-yl)-5-((2-cyclopropylthiazol-4-yl)ethynyl)-N^4-isopropylpyridine-2,4-diamine] |
|  |  |  |  |  |  |  |  | 3.5 | 201 | 69.1 | CC(C)Nc1cc(Nc2ccnc(-c3cnn(S(=O)(=O)C4CC4)c3)n2)ncc1C#CC1CCOCC1 [Example 206, N^2-(2-(1-(Cyclopropylsulfonyl)-1H-pyrazol-4-yl)pyrimidin-4-yl)-N^4-isopropyl-5-((tetrahydro-2H-pyran-4-yl)ethynyl)pyridine-2,4-diamine] |

The remaining lines, values behind:

| Structure (SMILES) | IC50 [1, 5] [nM] | IC50 [2, 6] [nM] | IC50 [3, 7] [nM] | IC50 [1, 8] [nM] | IC50 [4, 9] [nM] | IC50 [2, 10] [nM] | IC50 ([3]; IC50 WT (nM), 100 μM ATP) [nM] | IC50 [4, 11] [nM] | IC50 [1, 12] [nM] | IC50 [3, 13] [nM] | IC50 [2, 14] [nM] |
| --- | --- | --- | --- | --- | --- | --- | --- | --- | --- | --- | --- |
| CCS(=O)(=O)N1CCN(c2cc(Nc3ccnc(-c4cnn(S(=O)(=O)C5CC5)c4)n3)ncc2C#Cc2cnn(C)c2)CC1 [Example 3, 2-(1-(Cyclopropylsulfonyl)-1H-pyrazol-4-yl)-N-(4-(4-(ethylsulfonyl)piperazin-1-yl)-5-((1-methyl-1H-pyrazol-4-yl)ethynyl)pyridin-2-yl)pyrimidin-4-amine] | 6.6 | 240 | 3830 |  |  |  |  |  |  |  |  |
| O=S(=O)(C1CC1)n1cc(-c2nccc(Nc3cc(N4CCN(CCO)CC4)c(C#Cc4cnn(CCF)c4)cn3)n2)cn1 [Example 16, 2-(4-(2-((2-(1-(Cyclopropylsulfonyl)-1H-pyrazol-4-yl)pyrimidin-4-yl)amino)-5-((1-(2-fluoroethyl)-1H-pyrazol-4-yl)ethynyl)pyridin-4-yl)piperazin-1-yl)ethan-1-ol] | 4.5 | 68.6 | 145 | 3.3 | 10.1 | 165 | > 10000 |  |  |  |  |
| CC(C)Nc1cc(Nc2ccnc(-c3cnn(S(=O)(=O)C4CC4)c3)n2)ncc1C#Cc1cnn(C(C)C)c1 [Example 19, N^2-(2-(1-(Cyclopropylsulfonyl)-1H-pyrazol-4-yl)pyrimidin-4-yl)-N^4-isopropyl-5-((1-isopropyl-1H-pyrazol-4-yl)ethynyl)pyridine-2,4-diamine] | 4.4 | 41.8 | 1680 | 5.4 | 3.7 | 140 | > 10000 | 2.3 |  |  |  |
| CCC(C)Nc1cc(Nc2ccnc(-c3cnn(S(=O)(=O)C4CC4)c3)n2)ncc1C#Cc1cnn(C)c1 (stereo not shown) [Example 24, N^4-(sec-Butyl)-N^2-(2-(1-(cyclopropylsulfonyl)-1H-pyrazol-4-yl)pyrimidin-4-yl)-5-((1-methyl-1H-pyrazol-4-yl)ethynyl)pyridine-2,4-diamine] | 2.7 | 32.9 | 462 |  |  |  |  | 4.4 |  |  |  |
| CCC(C)Nc1cc(Nc2ccnc(-c3cnn(S(=O)(=O)C4CC4)c3)n2)ncc1C#Cc1cnn(C(C)C)c1 (stereo not shown) [Example 25, N^4-(sec-Butyl)-N^2-(2-(1-(cyclopropylsulfonyl)-1H-pyrazol-4-yl)pyrimidin-4-yl)-5-((1-isopropyl-1H-pyrazol-4-yl)ethynyl)pyridine-2,4-diamine] | 6.9 | 105 | 915 |  |  |  |  | 6.5 |  |  |  |
| CCC(C)Nc1cc(Nc2ccnc(-c3cnn(S(=O)(=O)C4CC4)c3)n2)ncc1C#Cc1cnn(CCF)c1 (stereo not shown) [Example 26, N^4-(sec-Butyl)-N^2-(2-(1-(cyclopropylsulfonyl)-1H-pyrazol-4-yl)pyrimidin-4-yl)-5-((1-(2-fluoroethyl)-1H-pyrazol-4-yl)ethynyl)pyridine-2,4-diamine] | 3.1 | 58.1 | 545 |  |  |  |  | 3.6 |  |  |  |
| CN(CCO)c1cc(Nc2ccnc(-c3cnn(S(=O)(=O)C4CC4)c3)n2)ncc1C#Cc1cnn(C)c1 [Example 37, 2-((2-((2-(1-(Cyclopropylsulfonyl)-1H-pyrazol-4-yl)pyrimidin-4-yl)amino)-5-((1-methyl-1H-pyrazol-4-yl)ethynyl)pyridin-4-yl)(methyl)amino)ethan-1-ol] | 20.2 |  | 435 |  |  | 870 | > 10000 |  |  |  |  |
| CN(CCO)c1cc(Nc2ccnc(-c3cnn(S(=O)(=O)C4CC4)c3)n2)ncc1C#Cc1cnn(CCF)c1 [Example 38, 2-((2-((2-(1-(Cyclopropylsulfonyl)-1H-pyrazol-4-yl)pyrimidin-4-yl)amino)-5-((1-(2-fluoroethyl)-1H-pyrazol-4-yl)ethynyl)pyridin-4-yl)(methyl)amino)ethan-1-ol] | 17.6 |  | 368 |  |  | 464 | > 10000 |  |  |  |  |
| CCC(C)Oc1cc(Nc2ccnc(-c3cnn(S(=O)(=O)C4CC4)c3)n2)ncc1C#Cc1cnn(C(C)C)c1 (stereo not shown) [Example 57, N-(4-(sec-Butoxy)-5-((1-isopropyl-1H-pyrazol-4-yl)ethynyl)pyridin-2-yl)-2-(1-(cyclopropylsulfonyl)-1H-pyrazol-4-yl)pyrimidin-4-amine] | 13.9 | 493 |  |  |  |  |  | 26.1 |  |  |  |
| CC(C)n1cc(C#Cc2cnc(Nc3ccnc(-c4cnn(S(=O)(=O)C5CC5)c4)n3)cc2-c2cnn(C3CC3)c2)cn1 [Example 236, N-(4-(1-cyclopropyl-1H-pyrazol-4-yl)-5-((1-isopropyl-1H-pyrazol-4-yl)ethynyl)pyridin-2-yl)-2-(1-(cyclopropylsulfonyl)-1H-pyrazol-4-yl)pyrimidin-4-amine] | 11.3 | 359 |  |  |  |  |  | 45.3 |  |  |  |

Source: US11981658B2, “Substituted aminopyridine compounds as EGFR inhibitors” (YUHAN CORPORATION, priority 2021, dated 2024)
